From publication PMC6268061, “Investigation of the Biological Properties of (Hetero)Aromatic Thiosemicarbazones” (Molecules, 2012)
Values after ≈ are worked out from the molar mass of the structure shown. Read-outs that look alike come from different tables or passages of the source.

How the values were obtained:
[1] = tested on: Candida tropicalis 156; test: In vitro antifungal susceptibility, broth microdilution; type: cell-based; conditions: read-out: MIC (IC80) CT
[2] = tested on: Candida albicans ATCC 44859; test: as above; type: cell-based; conditions: read-out: MIC (IC80) CA
[3] = tested on: photosynthetic electron transport (PET) in spinach chloroplasts; test: Inhibition of photosynthetic electron transport (PET) in spinach chloroplasts; type: biochemical, Spinacia oleracea L.; conditions: DCPIP photoreduction
Description: Chloroplasts were prepared from spinach (Spinacia oleracea L.) according to Masarovicova and Kralova. The inhibition of the photosynthetic electron transport (PET) in spinach chloroplasts was determined spectrophotometrically (Genesys 6, Thermo Fisher Scientific, Waltham, MA, USA) using an artificial electron acceptor 2,6-dichlorophenol-indophenol (DCIPP) according to Kralova et al. and the rate of photosynthetic electron transport was monitored as a photoreduction of DCPIP. The measurements were carried out in a phosphate buffer (0.02 mol/L, pH 7.2) containing sucrose (0.4 mol/L), MgCl2 (0.005 mol/L) and NaCl (0.015 mol/L). The chlorophyll content was 30 mg/L in these experiments and the samples were irradiated (~100 W/m^2 with 10 cm distance) with a halogen lamp (250 W) using a 4 cm water filter to prevent warming of the samples (suspension temperature 22 °C). The compounds studied were dissolved in DMSO due to their limited water solubility. […] The inhibitory efficiency of the compounds studied was expressed by IC50 values, i.e., by the molar concentration of the compounds that caused a 50% decrease in the oxygen evolution rate relative to the untreated control.

[4] = tested on: Trichophyton mentagrophytes 445; test: In vitro antifungal susceptibility, broth microdilution; type: cell-based; conditions: read-out: MIC (IC50) TM
[5] = tested on: Candida krusei ATCC 6258; test: as above; type: cell-based; conditions: Pichia kudriavzevii, read-out: MIC (IC80) CK
[6] = tested on: Candida glabrata 20/I; test: as above; type: cell-based; conditions: Nakaseomyces glabratus, read-out: MIC (IC80) CG
[7] = tested on: HCT-116 human colon cancer cells (p53 wild type); design: method as in PMID 22858101; conditions: footnote 3: anticancer activity described elsewhere ref [34],[44]; cited from earlier work
[8] = tested on: Aspergillus fumigatus 231; test: In vitro antifungal susceptibility, broth microdilution; type: cell-based; conditions: read-out: MIC (IC50) AF
[9] = tested on: Trichosporon beigelii 1188; test: as above; type: cell-based; conditions: read-out: MIC (IC80) TB
Text: The broth microdilution test was used for the assessment of the in vitro antifungal activity of the synthesized compounds against Candida albicans ATCC 44859 (CA), Candida tropicalis 156 (CT), Candida krusei ATCC 6258 (CK), Candida glabrata 20/I (CG), Trichosporon beigelii 1188 (TB), Aspergillus fumigatus 231 (AF), Absidia corymbifera 272 (AC), and Trichophyton mentagrophytes 445 (TM). Fluconazole (FLU) was used as the standard since it is a clinically used antimycotic drug. The procedure was performed using a twofold dilution of the compounds in RPMI 1640 (Sevapharma a.s., Prague, Czech Republic) buffered to pH 7.0 with […] of 3-morpholino-propane-1-sulfonic acid (MOPS, Sigma, Prague, Czech Republic). The final concentrations of the compounds ranged from 500 to 0.975 μmol/L. Drug-free controls were included. The determination of minimum inhibitory concentration (MIC) was performed according to the Clinical and Laboratory Standards Institute (CLSI, formerly NCCLS) reference protocol M27-A2 for yeasts (IC80 value) and M38-A for moulds (IC50 value). IC80 and IC50 were defined as an 80% resp. 50% or greater reduction in growth in comparison with the control. The values of MICs were determined after 24 and 48 h of static incubation at 35 °C. The final MICs for T. mentagrophytes, were determined after 72 and 120 h of incubation.

[10] = Lipophilicity determination using RP-HPLC (capacity factor, log k); type: physicochemical; conditions: C18, MeOH 55%/H2O 45%
Text: Reversed phase high performance liquid chromatography (RP-HPLC) methods have become popular and are widely used for lipophilicity measurements. The general procedure is the measurement of the directly accessible retention time under isocratic conditions using varying amounts of methanol as an organic modifier in the mobile phase using RP columns and calculating the logarithm of the capacity factors (log k). Log k is the logarithm of the capacity factors in chromatographic approaches that is related to the partitioning of a compound between a mobile and a (pseudo-)stationary phase. Log k is used as the lipophilicity index converted to log P scale.
A Waters Alliance 2695 XE HPLC separation module and a Waters Photodiode Array Detector 2996 (Waters Corp., Milford, MA, USA) were used. A Symmetry® C18 5 μm, 4.6 × 250 mm, Part No. WAT054275 (Waters Corp.) chromatographic column was used. The HPLC separation process was monitored using Empower™ 2 Chromatography Data Software, Waters 2009 (Waters Corp.). A mixture of MeOH p.a. (55%) and H2O-HPLC-Mili-Q Grade (45%) was used as a mobile phase. The total flow of the column was 0.9 mL/min, injection volume 30 μL, column temperature 30 °C and sample temperature 10 °C. A detection wavelength of 210 nm was chosen. A KI methanolic solution was used for the determination of dead time (tD). Retention times (tR) were measured in minutes. The capacity factors k were calculated using the Empower™ 2 Chromatography Data Software according to the formula k = (tR − tD)/tD, where tR is the retention time of the solute, whereas tD denotes the dead time obtained using an unretained analyte. Log k, calculated from the capacity factor k, is used as the lipophilicity index converted to log P scale.

[11] = tested on: Absidia corymbifera 272; test: In vitro antifungal susceptibility, broth microdilution; type: cell-based; conditions: read-out: MIC (IC50) AC
[12] = Trichophyton mentagrophytes, 445, 72 h
[13] = Trichophyton mentagrophytes, 445, 120 h
[14] = Aspergillus fumigatus, 231, 24 h
[15] = Aspergillus fumigatus, 231, 48 h
[16] = Trichosporon beigelii, 1188, 24 h
[17] = Trichosporon beigelii, 1188, 48 h
[18] = Lichtheimia corymbifera, 272, 24 h
[19] = Lichtheimia corymbifera, 272, 48 h

Row | SMILES | MIC ([1]; Candida tropicalis, 156, 24 h) | MIC ([1]; Candida tropicalis, 156, 48 h) | MIC ([2]; ATCC44859, 24 h) | MIC ([2]; ATCC44859, 48 h) | IC50 [3] | IC50 [4, 12] | IC50 [4, 13] | MIC ([5]; ATCC6258, 24 h) | MIC ([5]; ATCC6258, 48 h) | MIC ([6]; 24 h) | MIC ([6]; 48 h) | IC50 [7] | IC50 [8, 14] | IC50 [8, 15] | MIC [9, 16] | MIC [9, 17] | log k [10] | IC50 [11, 18] | IC50 [11, 19] | other results
1 | CN(C)C(=S)NN/C=C/c1ccc2ccccc2n1 [Compound 4b, (E)-2-(Quinolin-2-ylvinyl)-N,N-dimethylhydrazinecarbothioamide] | 1.95 µM (≈ 0.531 µg/mL) | 7.81 µM (≈ 2.13 µg/mL) | 1.95 µM (≈ 0.531 µg/mL) | 1.95 µM (≈ 0.531 µg/mL) | 1370 µM | 3.9 µM | 3.9 µM | 3.9 µM (≈ 1.06 µg/mL) | 3.9 µM (≈ 1.06 µg/mL) | 1.95 µM (≈ 0.531 µg/mL) | 1.95 µM (≈ 0.531 µg/mL) | 4.86 ± 1.48 µM | 3.9 µM | 3.9 µM | 1.95 µM (≈ 0.531 µg/mL) | 1.95 µM (≈ 0.531 µg/mL) | 0.6184 | 3.9 µM | 3.9 µM | 
2 | CNC(=S)NN=Cc1ccc2cccc(O)c2n1 [Compound 4e] |  |  |  |  | 302 µM |  |  |  |  |  |  | 1.71 ± 0.34 µM |  |  |  |  | 0.6236 |  |  | MIC ([1]; Candida tropicalis, 156, 24 h and 48 h, only one value presented (inactive)): > 125 µM; MIC ([2]; ATCC44859, 24 h and 48 h, only one value presented (inactive)): > 125 µM; IC50 ([4]; Trichophyton mentagrophytes, 445, 72 h and 120 h, only one value presented (inactive)): > 125 µM; MIC ([5]; ATCC6258, 24 h and 48 h, only one value presented (inactive)): > 125 µM; MIC ([6]; 24 h and 48 h, only one value presented (inactive)): > 125 µM; IC50 ([8]; Aspergillus fumigatus, 231, 24 h and 48 h, only one value presented (inactive)): > 125 µM; MIC ([9]; Trichosporon beigelii, 1188, 24 h and 48 h, only one value presented (inactive)): > 125 µM; IC50 ([11]; Lichtheimia corymbifera, 272, 24 h and 48 h, only one value presented (inactive)): > 125 µM
3 | CNC(=S)NN=Cc1c(O)ccc2cccnc12 [Compound 4i] | > 500 µM | > 500 µM | > 500 µM | > 500 µM |  | > 500 µM | > 500 µM | > 500 µM | > 500 µM | > 500 µM | > 500 µM | > 25 µM | > 500 µM | > 500 µM | > 500 µM | > 500 µM | 0.6193 | > 500 µM | > 500 µM | 
4 | CN(C)C(=S)NN=Cc1c(O)ccc2cccnc12 [Compound 4j] | > 250 µM | > 250 µM | 125 µM (≈ 34.3 µg/mL) | > 250 µM | 520 µM | 125 µM | 125 µM | > 250 µM | > 250 µM | 125 µM (≈ 34.3 µg/mL) | 125 µM (≈ 34.3 µg/mL) | 20.8 ± 5.34 µM | > 250 µM | > 250 µM | 125 µM (≈ 34.3 µg/mL) | > 250 µM | 0.5831 | > 250 µM | > 250 µM | 
5 | CCNC(=S)NN=Cc1c(O)ccc2cccnc12 [Compound 4k] | > 500 µM | > 500 µM | > 500 µM | > 500 µM |  | 62.5 µM | 62.5 µM | > 500 µM | > 500 µM | 62.5 µM (≈ 17.1 µg/mL) | 500 µM (≈ 137 µg/mL) | > 25 µM | > 500 µM | > 500 µM | > 500 µM | > 500 µM | 0.6539 | > 500 µM | > 500 µM | 
6 | Oc1ccc2cccnc2c1C=NNC(=S)Nc1ccccc1 [Compound 4l] | 125 µM (≈ 40.3 µg/mL) | 125 µM (≈ 40.3 µg/mL) | 31.2 µM (≈ 10.1 µg/mL) | 62.5 µM (≈ 20.1 µg/mL) |  | 15.6 µM | 15.6 µM | 31.2 µM (≈ 10.1 µg/mL) | 125 µM (≈ 40.3 µg/mL) | 15.6 µM (≈ 5.04 µg/mL) | 31.2 µM (≈ 10.1 µg/mL) | 16.3 ± 1.69 µM | 125 µM | 125 µM | 15.6 µM (≈ 5.04 µg/mL) | 125 µM (≈ 40.3 µg/mL) | 0.6748 | 15.6 µM | 62.5 µM | 
